ChEMBL document CHEMBL5154887, “Novel CRBN-Recruiting Proteolysis-Targeting Chimeras as Degraders of Stimulator of Interferon Genes with In Vivo Anti-Inflammatory Efficacy” (J Med Chem, 2022)
Activity calls are given as the source filed them. The rule behind the calls is not given here.

What was measured:
[1] = tested on: Mus musculus; assay: In vivo inhibition of STING signalling pathway in ip dosed cisplatin-induced acute kidney injury in C57BL/6J mouse model assessed as reduction in IFN-beta expression in blood of mouse eyeballs pretreated for 1 hr followed by cisplatin administration and measured after 72 hrs by ELISA; type: functional, organism-based; conditions: time 73.0 hrs, DDE = dose-dependent effect
[2] = Tmax in Sprague-Dawley rat at 2 mg/kg, iv measured upto 48 hrs by UPLC-triple quadrupole MS analysis; type: ADME, organism-based; conditions: in vivo
[3] = Cytotoxicity against HEK293-A cells assessed as reduction in cell viability at <10 uM by MTT assay; type: toxicity, cell-based; conditions: human
[4] = Cytotoxicity against mouse C17.2 cells assessed as reduction in cell viability at <10 uM by MTT assay; type: toxicity, cell-based; conditions: c17.2, 10 µM
[5] = MRT (0 to t) in Sprague-Dawley rat at 2 mg/kg, iv measured upto 48 hrs by UPLC-triple quadrupole MS analysis; type: ADME, organism-based; conditions: in vivo
[6] = MRT (0 to infinity) in Sprague-Dawley rat at 2 mg/kg, iv measured upto 48 hrs by UPLC-triple quadrupole MS analysis; type: ADME, organism-based; conditions: in vivo
[7] = Clearance in Sprague-Dawley rat at 20 mg/kg, po measured upto 48 hrs by UPLC-triple quadrupole MS analysis; type: ADME, organism-based; conditions: in vivo
[8] = Toxicity in cisplatin-induced acute kidney injury in C57BL/6J mouse model assessed as vacuole like changes in kidney at 30 to 60 mg/kg, ip pretreated for 1 hr followed by cisplatin administration and measured after 72 hrs by H and E staining based analysis; type: organism-based; conditions: in vivo, 73 h, dose 30-60 mg/kg
[9] = In vivo inhibition of STING signalling pathway in cisplatin-induced acute kidney injury in C57BL/6J mouse model assessed as reduction in STING protein expression in kidney at 30 mg/kg, ip pretreated for 1 hr followed by cisplatin administration and measured after 72 hrs by Western blot analysis (Rvb= 375%); type: functional; parameters: scale not given: the % may be the effect or the level left; conditions: time 73 hrs
[10] = tested on: Mus musculus; assay: Renal protective activity against cisplatin-induced acute kidney injury in C57BL/6J mouse model assessed as improvement in renal blood flow velocity at 60 mg/kg, ip by B-mode ultrasound scanner analysis; type: functional, organism-based
[11] = tested on: Mus musculus; assay: Antiinflammatory activity against cisplatin-induced acute kidney injury in C57BL/6J mouse model assessed as reduction in kidney weight at 30 mg/kg, ip pretreated for 1 hr followed by cisplatin administration and measured after 72 hrs relative to control; type: functional; parameters: scale not given: the % may be the effect or the level left; conditions: time 73 hrs
[12] = target: T1, Protein cereblon/Stimulator of interferon genes protein (Homo sapiens, UniProt Q96SW2+Q86WV6); assay: Protac activity at CRBN/STING in human THP-1 cells assessed as increase in STING degradation at 10 uM incubated for 48 hrs by Western blot analysis relative to control; type: cell-based
[13] = Toxicity in cisplatin-induced acute kidney injury in C57BL/6J mouse model assessed as illegible tubular structure in kidney at 30 to 60 mg/kg, ip pretreated for 1 hr followed by cisplatin administration and measured after 72 hrs by H and E staining based analysis; type: organism-based; conditions: in vivo, 73 h, dose 30-60 mg/kg
[14] = MRT (0 to infinity) in Sprague-Dawley rat at 20 mg/kg, po measured upto 48 hrs by UPLC-triple quadrupole MS analysis; type: ADME, organism-based; conditions: in vivo
[15] = tested on: Mus musculus; assay: Renal protective activity against cisplatin-induced acute kidney injury in C57BL/6J mouse model assessed as reduction in abnormal signal intensities of T2 at 60 mg/kg, ip by NMR based analysis; type: functional, organism-based
[16] = MRT (0 to t) in Sprague-Dawley rat at 20 mg/kg, po measured upto 48 hrs by UPLC-triple quadrupole MS analysis; type: ADME, organism-based; conditions: in vivo
[17] = In vivo inhibition of STING signalling pathway in cisplatin-induced acute kidney injury in C57BL/6J mouse model assessed as reduction in STING protein expression in kidney at 60 mg/kg, ip pretreated for 1 hr followed by cisplatin administration and measured after 72 hrs by Western blot analysis (Rvb= 375%); type: functional; parameters: scale not given: the % may be the effect or the level left; conditions: time 73 hrs
[18] = Cmax in Sprague-Dawley rat at 20 mg/kg, po measured upto 48 hrs by UPLC-triple quadrupole MS analysis; type: ADME, organism-based; parameters: time < 48 hrs, dose 20 mg/kg, route po; conditions: in vivo
[19] = Toxicity in C57BL/6J mouse model of cisplatin-induced acute kidney injury assessed as survival rate at 60 mg/kg, ip pretreated for 1 hr followed by cisplatin administration and measured after 72 hrs relative to control; type: organism-based; conditions: in vivo, 73 h
[20] = Apparent volume of distribution in Sprague-Dawley rat at 2 mg/kg, iv measured upto 48 hrs by UPLC-triple quadrupole MS analysis; type: ADME, organism-based; conditions: in vivo, read-out: Vz
[21] = tested on: THP-1; assay: Inhibition of cGAS-STING signalling pathway in human THP-1 cells assessed as downregulation of cGAMP-triggered IFN-beta expression preincubated for 2 hrs followed by cGAMP stimulation and measured after 24 hrs by ELISA; type: cell-based; conditions: dose 2.5-20 µM, time 26.0 hrs, DDE = dose-dependent effect
[22] = AUC (0 to infinity) in Sprague-Dawley rat at 2 mg/kg, iv measured upto 48 hrs by UPLC-triple quadrupole MS analysis; type: ADME, organism-based; parameters: time < 48 hrs, dose 2 mg/kg, route iv; conditions: in vivo
[23] = tested on: Mus musculus; assay: In vivo inhibition of STING signalling pathway in ip dosed cisplatin-induced acute kidney injury in C57BL/6J mouse model assessed as reduction in IL-6 expression in blood of mouse eyeballs pretreated for 1 hr followed by cisplatin administration and measured after 72 hrs by ELISA; type: functional, organism-based; conditions: time 73.0 hrs, DDE = dose-dependent effect
[24] = target: T1, Protein cereblon/Stimulator of interferon genes protein; assay: Protac activity at CRBN/STING in human THP-1 cells assessed as increase in STING degradation at 10 uM pretreated with lysosome inhibitor BAF for 1 hr followed by compound addition and measured after 48 hrs by Western blot analysis; type: cell-based
[25] = Cytotoxicity against mouse C17.2 cells assessed as cell growth inhibition at 30 uM by MTT assay relative to control; type: toxicity, cell-based
[26] = Renal toxicity in C57BL/6J mouse assessed as reduction in creatinine level at 30 mg/kg, ip (Rvb= 8.5 umol/L); type: organism-based; conditions: in vivo
[27] = target: Stimulator of interferon genes protein (Homo sapiens) (UniProt Q86WV6); assay: Inhibition of STING pathway in human THP-1 cells assessed as inhibition of cGAMP-triggered NF-kappaB p-p65 expression preincubated for 2 hrs followed by cGAMP stimulation and measured after 24 hrs by Western blot analysis; type: cell-based; conditions: dose 0-20 µM, time 26.0 hrs, DDE = dose-dependent effect
Stimulator of interferon genes protein (Homo sapiens), sequence (Q86WV6 whole entry): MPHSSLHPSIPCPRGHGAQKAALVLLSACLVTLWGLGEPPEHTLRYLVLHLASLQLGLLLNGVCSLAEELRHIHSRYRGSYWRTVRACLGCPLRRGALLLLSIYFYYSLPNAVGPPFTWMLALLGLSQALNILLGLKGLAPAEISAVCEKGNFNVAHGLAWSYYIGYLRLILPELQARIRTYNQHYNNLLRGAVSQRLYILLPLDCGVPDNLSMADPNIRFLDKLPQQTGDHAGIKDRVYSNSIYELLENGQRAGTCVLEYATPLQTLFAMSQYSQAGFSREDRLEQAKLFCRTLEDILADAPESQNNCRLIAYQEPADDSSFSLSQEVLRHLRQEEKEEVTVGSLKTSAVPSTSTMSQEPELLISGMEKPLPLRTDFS

T1 sequence (Q86WV6 whole entry, looked up): as the sequence (Q86WV6 whole entry) above
T1 sequence (Q96SW2 whole entry, looked up): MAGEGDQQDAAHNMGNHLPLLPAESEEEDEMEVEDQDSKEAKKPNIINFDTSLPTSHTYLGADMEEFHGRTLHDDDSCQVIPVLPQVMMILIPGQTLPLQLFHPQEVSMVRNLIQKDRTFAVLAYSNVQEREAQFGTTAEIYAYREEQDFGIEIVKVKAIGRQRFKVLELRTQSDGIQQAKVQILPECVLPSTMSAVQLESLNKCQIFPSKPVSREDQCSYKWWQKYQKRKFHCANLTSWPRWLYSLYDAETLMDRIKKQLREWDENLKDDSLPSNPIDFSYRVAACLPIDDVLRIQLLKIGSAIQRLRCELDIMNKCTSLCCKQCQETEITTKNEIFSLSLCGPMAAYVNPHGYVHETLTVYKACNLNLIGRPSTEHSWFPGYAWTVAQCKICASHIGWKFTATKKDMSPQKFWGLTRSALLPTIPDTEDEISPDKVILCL

Structure (SMILES): O=C(/C=C/C(=O)Nc1ccc(NC(=O)c2ccc([N+](=O)[O-])o2)cc1)NCCCCCCNc1cccc2c1C(=O)N(C1CCC(=O)NC1=O)C2=O (configuration not stated)
- inhibition [1]: Dde
- Tmax [2]: 4.98 min
- Activity [3]: Non-Toxic
- Activity [4]: Non-Toxic
- MRT last at 48 h [5]: 1.74 h
- MRT inf [6]: 1.95 h
- CL/F [7]: 429 L/h/kg
- Activity [8]: Non-Toxic
- Activity [9]: 150%
- Activity [10]: Active
- Activity [11]: 14%
- Activity [12]: 76%
- Activity [13]: Non-Toxic
- MRT inf [14]: 11.7 h
- Activity [15]: Active
- MRT last at 48 h [16]: 7.6 h
- Activity [17]: 70%
- Cmax [18]: 8.37 ng/mL
- Survival [19]: 100%
- Vd [20]: 38 L/kg
- Activity [21]: Dde
- AUC(0-inf) [22]: 259 ng·h/mL
- inhibition [23]: Dde
- Activity [24]: Active
- inhibition at 30 µM [25]: 15.6%
- Activity [26]: 26.8 µmol/L
- inhibition [27]: Dde
